Here are results for four compounds from publication PMC7213754 (Clinical cancer research : an official journal of the …, 2009).

A short description of series [1]: Vinorelbine pharmacokinetics in patients, alone and with tariquidar. Type of series: in vivo, human. Conditions: for effect of tariquidar on vinorelbine pharmacokinetics: tariquidar 150 mg before vinorelbine.
Series [2] is described as follows: Tariquidar pharmacokinetics in patients. The class given is in vivo, human. The settings on record: for concentration at 24 h / concentration at 48 h: intravenous, mean plasma concentration.
For series [3], the target named is T1, Pgp (Homo sapiens, UniProt P08183). The series can be described thus: 99mTc-sestamibi scanning at baseline and after tariquidar. The class given is in vivo.
T1 sequence (P08183 whole entry): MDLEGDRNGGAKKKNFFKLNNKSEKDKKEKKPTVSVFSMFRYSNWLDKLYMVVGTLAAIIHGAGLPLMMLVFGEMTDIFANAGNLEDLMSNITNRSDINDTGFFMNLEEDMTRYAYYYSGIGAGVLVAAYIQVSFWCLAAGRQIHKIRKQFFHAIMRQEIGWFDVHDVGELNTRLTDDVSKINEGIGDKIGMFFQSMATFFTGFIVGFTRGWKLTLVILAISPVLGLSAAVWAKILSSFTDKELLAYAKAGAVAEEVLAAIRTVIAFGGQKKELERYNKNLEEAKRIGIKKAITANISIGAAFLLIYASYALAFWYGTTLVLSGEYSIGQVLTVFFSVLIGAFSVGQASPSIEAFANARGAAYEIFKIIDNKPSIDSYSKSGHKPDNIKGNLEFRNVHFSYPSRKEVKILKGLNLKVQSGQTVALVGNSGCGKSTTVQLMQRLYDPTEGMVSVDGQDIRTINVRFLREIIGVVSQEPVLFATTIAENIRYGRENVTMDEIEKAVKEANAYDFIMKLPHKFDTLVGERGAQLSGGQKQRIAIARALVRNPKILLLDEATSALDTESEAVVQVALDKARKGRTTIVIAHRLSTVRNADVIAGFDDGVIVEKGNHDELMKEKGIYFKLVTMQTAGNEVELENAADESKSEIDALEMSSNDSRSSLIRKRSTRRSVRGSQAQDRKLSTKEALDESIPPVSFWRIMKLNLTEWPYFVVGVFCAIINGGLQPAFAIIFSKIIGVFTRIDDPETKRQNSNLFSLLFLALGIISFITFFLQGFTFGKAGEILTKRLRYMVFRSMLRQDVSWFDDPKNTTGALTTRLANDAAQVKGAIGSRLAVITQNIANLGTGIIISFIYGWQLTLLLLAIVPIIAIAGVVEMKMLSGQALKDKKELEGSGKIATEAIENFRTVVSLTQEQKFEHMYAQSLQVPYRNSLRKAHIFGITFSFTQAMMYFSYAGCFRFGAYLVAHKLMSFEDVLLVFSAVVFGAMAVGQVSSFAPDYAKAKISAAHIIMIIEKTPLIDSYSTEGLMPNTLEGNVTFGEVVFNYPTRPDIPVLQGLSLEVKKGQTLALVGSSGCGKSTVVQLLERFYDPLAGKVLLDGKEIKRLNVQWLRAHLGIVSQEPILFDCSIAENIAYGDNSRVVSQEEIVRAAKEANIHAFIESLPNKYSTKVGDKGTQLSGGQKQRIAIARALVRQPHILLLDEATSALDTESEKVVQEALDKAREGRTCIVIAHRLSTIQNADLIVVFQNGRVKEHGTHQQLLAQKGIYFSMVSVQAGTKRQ
The target in series [4] is T1, Pgp. Conditions: 150 mg tariquidar; cited from earlier work.
In series [5] the test system is multidrug-resistant human tumor cell lines. Conditions: in vitro; cited from earlier work.
In series [6] the test system is Pgp. Conditions: cited from earlier work.
The target in series [7] is T1, Pgp. The experiment in a line: Rhodamine efflux from circulating CD56+ cells of patients.
For series [8] the following is noted: cited from earlier work.
The mark [9] stands for this setting: cycle 2, 150 mg i.v. over 30 min, individual patients.
Where [10] appears, read: vinorelbine after tariquidar (post), individual patients.
Where [11] appears, read: vinorelbine after tariquidar, eight patients.
Setting [12] is: vinorelbine alone (pre), individual patients.
Where [13] appears, read: vinorelbine alone, eight patients.

Several values for one entry are separate records, joined by “and”; a condition that tells them apart may be missing. Equal entries are not always repeated. Entries after “also recorded” stand apart in the source; their conditions may differ. Bounds are passed on as bounds.

Regarding `COc1cc2c(cc1OC)CN(CCc1ccc(NC(=O)c3cc(OC)c(OC)cc3NC(=O)c3cnc4ccccc4c3)cc1)CC2` [tariquidar], the “effect of tariquidar on vinorelbine pharmacokinetics” value in [1] is reported as “no apparent effect of tariquidar on the disposition of vinorelbine; also recorded: did not affect the pharmacokinetics of vinorelbine”; in [1] (listed as Tariquidar) it was “no effects on vinorelbine pharmacokinetics”. The “difference in drug exposure between 2 patients” value in [2] (150 mg tariquidar) is listed as greater than 7 fold. Besides, the Clearance in series [2] (setting [9]) was 170 mL/min and 312 mL/min and 559 mL/min and 309 mL/min and 249 mL/min and 302 mL/min and 444 mL/min and 784 mL/min and 221 mL/min and 269 mL/min and 623 mL/min and 166 mL/min and 83 mL/min and 129 mL/min and 111 mL/min and 137 mL/min and 108 mL/min and 191 mL/min; in [2] (human, plasma, iv, 150 mg, Clearance, median, cycle 2, 150 mg i.v. over 30 min, 18 patients), 235 mL/min; in [2] (human, plasma, iv, 150 mg, mean (±SD) clearance, 150 mg i.v.), 287 ± 196 mL/min. In addition, the Cmax in series [2] (setting [9]) is 1,551 ng/mL and 1,317 ng/mL and 963 ng/mL and 1,362 ng/mL and 1,102 ng/mL and 582 ng/mL and 1,168 ng/mL and 516 ng/mL and 912 ng/mL and 911 ng/mL and 622 ng/mL and 5,793 ng/mL and 3,632 ng/mL and 1,266 ng/mL and 6,113 ng/mL and 4,628 ng/mL and 2,207 ng/mL and 1,008 ng/mL; in series [2] (human, plasma, iv, 150 mg, Cmax, median, cycle 2, 150 mg i.v. over 30 min, 18 patients), 1220 ng/mL. For the same compound, the Half-life in [2] (setting [9]) is 27.2 h and 33.2 h and 17.5 h and 25.5 h and 27.6 h and 43.8 h and 15.7 h and 14.2 h and 42.2 h and 23.8 h and 19.2 h and 32.9 h and 63.1 h and 44.4 h and 45.0 h and 50.6 h and 35.8 h; in series [2] (human, plasma, iv, 150 mg, Half-life, median, cycle 2, 150 mg i.v. over 30 min, 18 patients), 33 h; in series [2] (human, plasma, iv, 150 mg, mean (±SD) terminal half-life, 150 mg i.v.), 33.6 ± 13.5 h. For the same compound, in series [2] (setting [9]), the Vdss was 136 L and 343 L and 248 L and 206 L and 199 L and 661 L and 142 L and 348 L and 439 L and 553 L and 604 L and 82.3 L and 85.1 L and 447 L and 274 L and 234 L and 317 L and 247 L. Moreover, the concentration at 24 h in series [2] (human, plasma, 150 mg, cycle 1) is 119 ng/mL; in series [2] (human, plasma, 150 mg, cycle 2), 121 ng/mL. The concentration at 48 h is 79.4 ng/mL in [2] (human, plasma, 150 mg, cycle 1) and 69.5 ng/mL in series [2] (human, plasma, 150 mg, cycle 2). The compound also yielded a distribution volume (Vd) in [2] (human, plasma, iv, 150 mg, Vdss, median, cycle 2, 150 mg i.v. over 30 min, 18 patients) of 261 L. Also, on Pgp [3] (150-mg dose), the “effect on liver 99mTc-sestamibi clearance” value is “reduced liver 99mTc-sestamibi clearance”. In addition, the “difference in mean 99mTc-sestamibi AUC in heart, lungs and liver” value at Pgp [3] (baseline versus after tariquidar, all study patients) is given as “Large differences were noted in Pgp-expressing liver but not in the heart nor in the lungs”. Under “in vivo”, the tolerability entry is “well-tolerated”. For the same compound, the “mean change of 99mTc-sestamibi accumulation and retention in the liver” value on Pgp [4] is listed as “+128%”. In addition, in [5], the “duration of action after removal of drug from the culture medium” value was “at least 22 hours”. In addition, the “mode of inhibition of Pgp transport” value in the series with Pgp [6] is on record as “noncompetitive”. Also, the “transport substrate of Pgp” value in the series on Pgp [6] is “not a transport substrate of Pgp”. Further, the “Pgp block by i.v. tariquidar compared with exogenous PSC833” value at Pgp [7] (8, 24 and 48 h after 150 mg i.v.) is on record as “as effective in blocking Pgp as an excess of PSC833 added exogenously”.

As to `O[C@@H](COc1cccc2ncccc12)CN1CCN([C@@H]2c3ccccc3[C@@H]3[C@H](c4ccccc42)C3(F)F)CC1` [zosuquidar], in series [8] (phase I study), the “effect of zosuquidar on vinorelbine clearance” value was “may inhibit vinorelbine clearance to a modest degree”.

`CCC1=C[C@@H]2CN(C1)Cc1c([nH]c3ccccc13)[C@@](C(=O)OC)(c1cc3c(cc1OC)N(C)[C@H]1[C@@](O)(C(=O)OC)[C@H](OC(C)=O)[C@]4(CC)C=CCN5CC[C@]31[C@@H]54)C2` [vinorelbine]: in series [1] (setting [10]), the “Clearance Post” value was 518 mL/min/m^2 and 536 mL/min/m^2 and 555 mL/min/m^2 and 1,097 mL/min/m^2 and 589 mL/min/m^2 and 617 mL/min/m^2 and 477 mL/min/m^2 and 462 mL/min/m^2; the “t1/2 Post” value is 23 h and 51 h and 21 h and 43 h and 36 h and 58 h. In series [1] (setting [11]), the “Clearance Post, median and range” value is 546 mL/min/m^2 and 462-1,097 mL/min/m^2; the “t1/2 Post, median and range” value lay in the range of 21 to 58 h. In addition, the “AUC0-∞ Pre” value in series [1] (vinorelbine alone (pre), i.v. bolus 20 or 22.5 mg/m^2, individual patients) was 844 ng·h/mL and 635 ng·h/mL and 511 ng·h/mL and 838 ng·h/mL and 603 ng·h/mL and 758 ng·h/mL and 756 ng·h/mL. In addition, in [1] (setting [12]), the “Clearance Pre” value is 600 mL/min/m^2 and 444 mL/min/m^2 and 591 mL/min/m^2 and 652 mL/min/m^2 and 398 mL/min/m^2 and 553 mL/min/m^2 and 495 mL/min/m^2 and 496 mL/min/m^2; the “t1/2 Pre” value was 22 h and 19 h and 28 h and 48 h and 21 h and 37 h and 36 h. Also, in [1] (setting [13]), the “AUC0-∞ Pre, median and range” value was in the range of 511 to 844 ng·h/mL; the “Clearance Pre, median and range” value is 524 mL/min/m^2 and 398-652 mL/min/m^2; the “t1/2 Pre, median and range” value was in the range of 18 to 48 h. In series [2] (human, in vivo), the “effect of vinorelbine on tariquidar pharmacokinetics” value was “no effect on tariquidar pharmacokinetics”. For the same compound, the “maximum tolerated dose of vinorelbine in the combination” value (days 1 and 8 every 21 d with tariquidar 150 mg, without filgrastim) stood at 20 mg/m^2. Further, the “dose of vinorelbine felt to be tolerable with zosuquidar” value in series [8] (i.v. weekly for 3 weeks every 28 days) is given as 22.5 mg/m^2.

As to `C/C=C/C[C@@H](C)C(=O)[C@H]1C(=O)N[C@@H](C(C)C)C(=O)N(C)CC(=O)N(C)[C@@H](CC(C)C)C(=O)N[C@@H](C(C)C)C(=O)N(C)[C@@H](CC(C)C)C(=O)N[C@@H](C)C(=O)N[C@H](C)C(=O)N(C)[C@@H](CC(C)C)C(=O)N(C)[C@@H](CC(C)C)C(=O)N(C)[C@@H](C(C)C)C(=O)N1C` [PSC833, valspodar], the “rhodamine efflux from CD56+ cells with exogenously added inhibitor” value at Pgp [7] (added exogenously to blood sample) is “completely blocked”.

A word on the Cmax: it is the peak of the concentration-time curve. A word on the Vdss: it is a proportionality between amount in the body and measured concentration, not a real space. The term Vd denotes a proportionality between amount in the body and measured concentration, not a real space. A high value points to wide distribution into tissue.
